26 compounds from patent EP0029617A1, “Use of tertiary heterocyclic amines as synergists in pesticides; derivatives of cycloamines” (priority 1979, dated 1981) can be followed below.

The series concerns Kornkäfer (sitophilus granarius L). In words: whole plant or invertebrate. The class given is in vivo. The note with it: for % Wirkung Substanz +Ripcord / % Wirkung Substanz +Talcord: Pyrethroid : Amin 1 : 10, amine 0,1 mg/ml; for mortality at 1000 µg/mL: read-out: Wirksamkeit in % Substanz allein. The essentials:
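Acetone solutions (2 ml) were dried as films in 15 cm Petri dishes and 25 grain weevils added per dish, with a filter inserted after 1 h. Dead beetles were counted at 3 h at 19–21 °C, and % mortality and the synergistic factor were derived.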

Where [1] appears, read: amine 1 mg/ml + Ripcord 0,01 mg/ml.
[2] abbreviates: amine 1 mg/ml + Talcord 0,01 mg/ml.
Where [3] appears, read: amine 1 mg/ml in Aceton mixed 1 : 1 with Aceton, 2 ml per dish, 25 weevils, dead counted after 3 h.
[4] abbreviates: amine 1 mg/ml mixed 1 : 1 with Ripcord 0,01 mg/ml, 3 h.
The mark [5] stands for this setting: amine 1 mg/ml mixed 1 : 1 with Talcord 0,01 mg/ml, 3 h.
Setting [6] is: Sitophilus granarius, amine 1 mg/ml in Aceton mixed 1 : 1 with Aceton, 2 ml per dish, 25 weevils, dead counted after 3 h.
The mark [7] stands for this setting: sitophilus granarius, in vivo, 3 h.

`Clc1ccc(CN2CCCC2)cc1` [N-4-Chlor-benzyl-pyrrolidin]: under “Pyrethroid : Amin 1 : 10”, the “Synergistischer Faktor bei Ripcord” value is 3,09 and the “Synergistischer Faktor bei Talcord” value was 7,55. Moreover, under “180 min”, the “% Wirkung Substanz +Ripcord” value is given as 97,2% and the “% Wirkung Substanz +Talcord” value was 73,2%. The “% Wirkung Substanz allein” value (amine 0,1 mg/ml (as for Pyrethroid : Amin 1 : 10), 180 min) turned out to be 0%. For the same compound, under setting [1], the “Synergistischer Faktor bei Ripcord” value is on record as 3,17. Under setting [2], the “Synergistischer Faktor bei Talcord” value is given as 2,35. Besides, the “Wirksamkeit in % Substanz allein” value under setting [3] came out at 0%. For the same compound, under setting [4], the “Wirksamkeit in % Substanz +Ripcord” value is listed as 100,0%. Also, the “Wirksamkeit in % Substanz +Talcord” value under setting [5] is 22,8%.
`O=[N+]([O-])c1ccc(CN2CCCCC2)cc1` [N-4-Nitro-benzyl-piperidin]: under setting [6], the mortality at 1000 µg/mL amounted to 2.8%. The “Synergistischer Faktor bei Ripcord” value under setting [1] is recorded as 1,47. The “Synergistischer Faktor bei Talcord” value under setting [2] was 1,77. In addition, the “Wirksamkeit in % Substanz +Ripcord” value under setting [4] is 49,2%. Further, the “Wirksamkeit in % Substanz +Talcord” value under setting [5] was 20,0%.
On to `CCCCOCCOCCN1CCCCCC1` [N-(2'-Butoxi-diethylether-(2))-hexamethylenimin], for which, where the note is “in vivo”, the “Synergistischer Faktor bei Ripcord” value is 2,50 and the “Synergistischer Faktor bei Talcord” value is reported as 3,30. Moreover, under setting [7], the “Wirksamkeit in % Substanz +Ripcord” value was 78,8%, the “Wirksamkeit in % Substanz +Talcord” value was 32,0% and the “Wirksamkeit in % Substanz allein” value stood at 0%.
With `c1ccc(COCCN2CCOCC2)cc1` [N-(2-Benzyloxi-ethyl-(1))-morpholin], the “Synergistischer Faktor bei Ripcord” value under setting [1] is listed as 1,61. The “Synergistischer Faktor bei Talcord” value under setting [2] is 3,30. Further, the “Wirksamkeit in % Substanz allein” value under setting [3] came out at 0%. Under setting [4], the “Wirksamkeit in % Substanz +Ripcord” value is on record as 50,8%. The “Wirksamkeit in % Substanz +Talcord” value under setting [5] was 32,0%.
On the same counts, the results for `c1ccc(OCCN2CCOCC2)cc1` [N-(2-Phenoxi-ethyl-(1))-morpholin] are 2,45, 6,47, 0%, 77,2% and 62,8%.
On to `CCC1CCCCN1Cc1ccccc1` (stereo not shown) [N-Benzyl-2-ethyl-piperidin], for which, under setting [6], the mortality at 1000 µg/mL worked out at 0%. For the same compound, under setting [1], the “Synergistischer Faktor bei Ripcord” value is 2,50. Further, the “Synergistischer Faktor bei Talcord” value under setting [2] is listed as 1,53. Moreover, the “Wirksamkeit in % Substanz +Ripcord” value under setting [4] is 78,8%. The “Wirksamkeit in % Substanz +Talcord” value under setting [5] is reported as 14,8%.
On the same counts, the results for `c1ccc(CN2CCOCC2)cc1` [N-Benzyl-morpholin] are 0%, 1,43, 2,19, 45,2% and 21,2%.
For `c1ccc(CN2CCCCC2)cc1` [N-Benzyl-piperidin], where the note is “180 min”, the “% Wirkung Substanz +Ripcord” value is 100,0% and the “% Wirkung Substanz +Talcord” value is listed as 73,2%. Further, under “Sitophilus granarius, 3 h, amine 0,1 mg/ml (as for Pyrethroid : Amin 1 : 10), read-out: % Wirkung Substanz allein”, the mortality at 100 µg/mL was 0%. Further, the mortality at 1000 µg/mL under setting [6] turned out to be 0%. Moreover, the “Wirksamkeit in % Substanz +Ripcord” value under setting [4] is on record as 94,8%. Moreover, the “Wirksamkeit in % Substanz +Talcord” value under setting [5] is given as 32,0%.
For the compound `c1ccc(CN2CCCC2)cc1` [N-Benzyl-pyrrolidin], under setting [6], the mortality at 1000 µg/mL amounted to 0%. Also, under setting [1], the “Synergistischer Faktor bei Ripcord” value is recorded as 2,45. The “Synergistischer Faktor bei Talcord” value under setting [2] is 1,65. The “Wirksamkeit in % Substanz +Ripcord” value under setting [4] is 77,2%. Further, the “Wirksamkeit in % Substanz +Talcord” value under setting [5] is 16,0%.
For `C(=Cc1ccccc1)CN1CCOCC1` [N-Cinnamyl-morpholin], in that order: 0%, 1,74, 4,54, 54,8% and 44,0%.
For `C1CCCC(N2CCOCC2)CC1` [N-Cycloheptyl-morpholin], in that order: 0%, 1,78, 3,59, 56,0% and 34,8%.
For `C1CCC(N2CCCC2)CC1` [N-Cyclohexyl-pyrrolidin], in that order: 0%, 2,16, 1,72, 68,0% and 17,2%.
In the case of `CN(C)C(=O)N1CCCCCC1` [N-Dimethyl-carbamoyl-hexa-methylenimin], the “Synergistischer Faktor bei Ripcord” value under setting [1] is 2,45. Further, under setting [2], the “Synergistischer Faktor bei Talcord” value is listed as 5,48. The “Wirksamkeit in % Substanz allein” value under setting [3] was 0%. The “Wirksamkeit in % Substanz +Ripcord” value under setting [4] is recorded as 77,2%. Also, the “Wirksamkeit in % Substanz +Talcord” value under setting [5] was 53,2%.
`CN(C)C(=O)N1CCCCC1` [N-Dimethyl-carbamoyl-piperidin]: the “Synergistischer Faktor bei Ripcord” value under setting [1] was 1,69. The “Synergistischer Faktor bei Talcord” value under setting [2] is recorded as 6,60. Besides, the “Wirksamkeit in % Substanz allein” value under setting [3] is reported as 0%. In addition, the “Wirksamkeit in % Substanz +Ripcord” value under setting [4] was 53,2%. The “Wirksamkeit in % Substanz +Talcord” value under setting [5] is 64,0%.
Turning to `c1ccc(C(c2ccccc2)N2CCOCC2)cc1` [N-Diphenyl-methyl-morpholin], the “Synergistischer Faktor bei Ripcord” value under setting [1] is recorded as 2,29. Under setting [2], the “Synergistischer Faktor bei Talcord” value was 4,12. Also, the “Wirksamkeit in % Substanz allein” value under setting [3] was 0%. The “Wirksamkeit in % Substanz +Ripcord” value under setting [4] is 72,0%. In addition, the “Wirksamkeit in % Substanz +Talcord” value under setting [5] is reported as 40,0%.
`OCCN1CCOCC1` [N-Ethanol-morpholin]: the “Synergistischer Faktor bei Ripcord” value under setting [1] was 2,12. The “Synergistischer Faktor bei Talcord” value under setting [2] is on record as 4,0. Further, the “Wirksamkeit in % Substanz allein” value under setting [3] is reported as 0%. Moreover, the “Wirksamkeit in % Substanz +Ripcord” value under setting [4] was 66,8%. Also, the “Wirksamkeit in % Substanz +Talcord” value under setting [5] is reported as 38,8%.
In the case of `CC(C)=CCCC(C)=CCCC(C)=CCN1CCCCC1` [N-Farnesyl-piperidin], the mortality at 1000 µg/mL under setting [6] was 0%. The “Synergistischer Faktor bei Ripcord” value under setting [1] was 2,67. Further, the “Synergistischer Faktor bei Talcord” value under setting [2] is 4,25. For the same compound, under setting [4], the “Wirksamkeit in % Substanz +Ripcord” value is 84,0%. For the same compound, the “Wirksamkeit in % Substanz +Talcord” value under setting [5] was 41,2%.
In the case of `N#CCN1CCCCCC1` [N-Hexamethylenimino-aceto-nitril], under setting [1], the “Synergistischer Faktor bei Ripcord” value is given as 1,69. Also, under setting [2], the “Synergistischer Faktor bei Talcord” value is given as 1,53. In addition, the “Wirksamkeit in % Substanz allein” value under setting [3] came to 0%. Moreover, the “Wirksamkeit in % Substanz +Ripcord” value under setting [4] is on record as 53,2%. For the same compound, under setting [5], the “Wirksamkeit in % Substanz +Talcord” value is 14,8%.
For `CCOC(=O)CCN1CCOCC1` [N-Morpholino-propionsäure-ethylester], the “Synergistischer Faktor bei Ripcord” value under setting [1] is 2,07. In addition, the “Synergistischer Faktor bei Talcord” value under setting [2] is on record as 2,76. For the same compound, the “Wirksamkeit in % Substanz allein” value under setting [3] was found to be 0%. Further, the “Wirksamkeit in % Substanz +Ripcord” value under setting [4] is 65,2%. Further, the “Wirksamkeit in % Substanz +Talcord” value under setting [5] was 26,8%.
Take `CCCCCC(C=O)CN1CCCCC1` (stereo not shown) [N-Piperidino-methyl-heptanal]: the “Wirksamkeit in % Substanz allein” value under setting [3] was found to be 0%. The “Wirksamkeit in % Substanz +Ripcord” value under setting [4] is 49,2%. For the same compound, the “Wirksamkeit in % Substanz +Talcord” value under setting [5] is 60,0%. Under “in vivo”, the “Synergistischer Faktor bei Ripcord” value is reported as 1,56 and the “Synergistischer Faktor bei Talcord” value is 6,19.
For `OCC(CO)(CO)CN1CCCCC1` [N-Piperidino-pentaerythrit], under setting [1], the “Synergistischer Faktor bei Ripcord” value was 1,99. For the same compound, the “Synergistischer Faktor bei Talcord” value under setting [2] was 3,30. The “Wirksamkeit in % Substanz allein” value under setting [3] amounted to 0%. Moreover, the “Wirksamkeit in % Substanz +Ripcord” value under setting [4] is recorded as 62,8%. The “Wirksamkeit in % Substanz +Talcord” value under setting [5] was 32,0%.
For `c1cc2c(cc1CN1CCCCCC1)OCO2` [N-Piperonyl-hexamethylenimin], the mortality at 1000 µg/mL under setting [6] was 0%. Besides, the “Synergistischer Faktor bei Ripcord” value under setting [1] was 3,05. Also, the “Synergistischer Faktor bei Talcord” value under setting [2] is reported as 7,01. Moreover, under setting [4], the “Wirksamkeit in % Substanz +Ripcord” value is 96,0%. For the same compound, the “Wirksamkeit in % Substanz +Talcord” value under setting [5] is 68,0%.
On the same counts, the results for `c1cc2c(cc1CN1CCOCC1)OCO2` [N-Piperonyl-morpholin] are 0%, 2,32, 3,84, 73,2% and 37,2%.
With `CCC(CC)N1CCCC1` [Pentyl-(3)-N-pyrrolidin], under setting [1], the “Synergistischer Faktor bei Ripcord” value is listed as 2,67. Besides, the “Synergistischer Faktor bei Talcord” value under setting [2] was 4,82. The “Wirksamkeit in % Substanz allein” value under setting [3] was determined as 0%. Further, the “Wirksamkeit in % Substanz +Ripcord” value under setting [4] was 84,0%. Also, the “Wirksamkeit in % Substanz +Talcord” value under setting [5] is 46,8%.
On the same counts, the results for `O=C(OCc1ccccc1)C(c1ccccc1)N1CCCCC1` (stereo not shown) [Phenyl-N-piperidino-essig-säure-benzylester] are 3,05, 2,89, 0%, 96,0% and 28,0%.
On the same counts, the results for `CCOC(=O)C(c1ccccc1)C(C(=O)OCC)N1CCCC1` (stereo not shown) [Phenyl-N-pyrrolidin-bern-steinsäure-diethylester] are 2,79, 2,76, 0%, 88,0% and 26,8%.
